Data reported in publication PMC8159961, “Exploring protein hotspots by optimized fragment pharmacophores” (Nature Communications, 2021).
“And” between values parts separate entries of the source, which are not always exact repeats. Identical values can stand only once. “Also recorded” adds a separate entry of the source. Like-named read-outs stand apart in the source and are kept apart here.

How the values were obtained:
human 5-HT1A receptor = biological target: T1, human 5-HT1A receptor (Homo sapiens, UniProt P08908); experiment: GPCR radioligand binding assay, [3H]-8-OH-DPAT displacement, HEK293 membranes
T1 construct: expressed in transfected cells
T1 sequence (P08908 1-422): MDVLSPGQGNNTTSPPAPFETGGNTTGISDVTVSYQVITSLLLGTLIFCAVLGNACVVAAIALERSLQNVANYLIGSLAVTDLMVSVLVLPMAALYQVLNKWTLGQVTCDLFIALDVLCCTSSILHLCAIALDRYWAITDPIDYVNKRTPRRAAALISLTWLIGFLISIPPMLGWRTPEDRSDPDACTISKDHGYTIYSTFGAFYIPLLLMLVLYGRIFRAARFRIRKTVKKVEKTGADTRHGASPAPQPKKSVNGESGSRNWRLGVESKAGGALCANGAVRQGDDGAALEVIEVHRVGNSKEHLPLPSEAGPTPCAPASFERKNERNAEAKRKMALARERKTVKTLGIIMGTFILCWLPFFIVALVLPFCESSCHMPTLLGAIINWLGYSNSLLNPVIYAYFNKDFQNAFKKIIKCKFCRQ

human 5-HT6 receptor = biological target: T2, human 5-HT6 receptor (Homo sapiens, UniProt P50406); experiment: GPCR radioligand binding assay, [3H]-LSD displacement, HEK293 membranes
T2 construct: expressed in transfected cells

human 5-HT7b receptor = biological target: T3, human 5-HT7b receptor (Homo sapiens, UniProt P34969); experiment: GPCR radioligand binding assay, [3H]-5-CT displacement, HEK293 membranes
T3 construct: expressed in transfected cells

human thrombin = biological target: T4, human thrombin (Homo sapiens, UniProt P00734); experiment: Protease inhibitory assay, chromogenic substrate S-2238; type: biochemical; details: plate layout, label = plate position; Cheng-Prusoff, Km 2.6 µM; read-out: Thrombin Ki
T4 construct: human thrombin; purchased Sigma-Aldrich

recombinant SETD2 = biological target: T5, recombinant SETD2 (Homo sapiens, UniProt Q9BYW2); experiment: SETD2 Chemiluminescence assay (H3K36 tri-methylation); type: biochemical; details: for SETD2 signal normalised to positive control and internally to compound: nM], replicates
T5 construct: purchased BPS Bioscience 52060
T5 sequence (Q9BYW2 1418-1714 limits assumed): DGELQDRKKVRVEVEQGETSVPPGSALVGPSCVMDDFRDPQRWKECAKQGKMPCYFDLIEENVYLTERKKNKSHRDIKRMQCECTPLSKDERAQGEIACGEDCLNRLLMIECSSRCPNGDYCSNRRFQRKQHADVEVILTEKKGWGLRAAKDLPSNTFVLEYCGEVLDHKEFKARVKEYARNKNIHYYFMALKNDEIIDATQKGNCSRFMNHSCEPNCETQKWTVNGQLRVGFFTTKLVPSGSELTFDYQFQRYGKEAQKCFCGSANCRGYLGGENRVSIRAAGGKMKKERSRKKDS

MOLM-13 leukemia cells = experiment: Cell viability assay, CellTiter-Glo, 5 days; details: for normalized viability (0 = 0 % viability, 1 = 100 % viability): MOLM-13, nM], replicates
MV4-11 leukemia cells = experiment: Cell viability assay, CellTiter-Glo, 5 days; details: for normalized viability (0 = 0 % viability, 1 = 100 % viability): MV4-11, nM], replicates
[1] = biological target: T6, SARS-CoV-2 NSP3 macrodomain (Severe acute respiratory syndrome coronavirus 2, UniProt P0DTD1); experiment: NSP3 macrodomain HTRF assay, displacement of ADP-ribose-conjugated biotin peptide; type: binding; details: HTRF assay, up to 5 mM concentration
SARS-CoV-2 = experiment: microbe, parasite or virus in culture; type: cell-based; details: for EC50: Vero E6 cells, 48 h post infection, read-out: EC50, blocking SARS-CoV-2 replication; for antiviral activity in the cellular assay (in words): infected Vero E6 cells
[2] = biological target: T6, SARS-CoV-2 NSP3 macrodomain; experiment: X-ray fragment screening (XChem, crystal soaking); type: binding

T2 sequence (P50406 whole entry): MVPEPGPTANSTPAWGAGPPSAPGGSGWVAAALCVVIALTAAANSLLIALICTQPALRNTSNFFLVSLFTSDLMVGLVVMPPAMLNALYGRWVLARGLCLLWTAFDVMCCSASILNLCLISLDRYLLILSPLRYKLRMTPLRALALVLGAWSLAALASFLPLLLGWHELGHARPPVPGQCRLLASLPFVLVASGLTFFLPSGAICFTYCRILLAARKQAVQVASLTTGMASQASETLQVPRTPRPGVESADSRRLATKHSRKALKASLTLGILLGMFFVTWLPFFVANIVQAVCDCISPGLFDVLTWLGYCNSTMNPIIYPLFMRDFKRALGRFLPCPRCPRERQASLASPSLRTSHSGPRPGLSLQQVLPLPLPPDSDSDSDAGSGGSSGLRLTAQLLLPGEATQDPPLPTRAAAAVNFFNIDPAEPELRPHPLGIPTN
T3 sequence (P34969 1-432): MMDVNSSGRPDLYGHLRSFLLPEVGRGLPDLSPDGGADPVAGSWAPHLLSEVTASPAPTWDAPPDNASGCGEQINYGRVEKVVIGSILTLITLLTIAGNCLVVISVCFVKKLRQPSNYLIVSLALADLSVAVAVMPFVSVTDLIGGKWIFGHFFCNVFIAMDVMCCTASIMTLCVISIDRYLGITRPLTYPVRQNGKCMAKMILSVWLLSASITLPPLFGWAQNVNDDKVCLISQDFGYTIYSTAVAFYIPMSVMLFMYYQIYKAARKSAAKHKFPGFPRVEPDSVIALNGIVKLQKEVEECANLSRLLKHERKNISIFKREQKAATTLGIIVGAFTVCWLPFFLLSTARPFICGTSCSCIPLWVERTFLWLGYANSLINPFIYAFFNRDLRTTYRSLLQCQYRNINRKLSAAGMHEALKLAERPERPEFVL

## CC1CCc2sc(C(=O)O)cc2C1 (stereo not drawn) [SX045]
Human 5-HT1A receptor; 10 µM, read-out: 5-HT1A % Inhibition by plate position
  inhibition at 10 µM: 0%
Human 5-HT1A receptor; 5-HT1A, average of exp_1 and exp_2, read-out: %inh 5-HT1A average
  inhibition at 10 µM: -1%
Human 5-HT1A receptor; 5-HT1A, average, values below 0 and above 100% were set as 0 and 100, read-out: %inh 5-HT1A corrected*
  inhibition at 10 µM: 0%
Human 5-HT1A receptor; 5-HT1A, replicate exp_1, read-out: %inh 5-HT1A exp_1
  inhibition at 10 µM: -0.0944%
Human 5-HT1A receptor; 5-HT1A, replicate exp_2, read-out: %inh 5-HT1A exp_2
  inhibition at 10 µM: -2%
Human 5-HT6 receptor; 10 µM, read-out: 5-HT6 % Inhibition by plate position
  inhibition at 10 µM: 45%
Human 5-HT6 receptor; 5-HT6, average of exp_1 and exp_2, read-out: %inh 5-HT6 average
  inhibition at 10 µM: 45%
Human 5-HT6 receptor; 5-HT6, average, values below 0 and above 100% were set as 0 and 100, read-out: %inh 5-HT6 corrected*
  inhibition at 10 µM: 45%
Human 5-HT6 receptor; 5-HT6, replicate exp_1, read-out: %inh 5-HT6 exp_1
  inhibition at 10 µM: 52%
Human 5-HT6 receptor; 5-HT6, replicate exp_2, read-out: %inh 5-HT6 exp_2
  inhibition at 10 µM: 38%
Human 5-HT7b receptor; 10 µM, read-out: 5-HT7 % Inhibition by plate position
  inhibition at 10 µM: 4.44%
Human 5-HT7b receptor; 5-HT7, average of exp_1 and exp_2, read-out: %inh 5-HT7 average
  inhibition at 10 µM: 4.44%
Human 5-HT7b receptor; 5-HT7, average, values below 0 and above 100% were set as 0 and 100, read-out: %inh 5-HT7 corrected*
  inhibition at 10 µM: 4.44%
Human 5-HT7b receptor; 5-HT7, replicate exp_1, read-out: %inh 5-HT7 exp_1
  inhibition at 10 µM: -4.73%
Human 5-HT7b receptor; 5-HT7, replicate exp_2, read-out: %inh 5-HT7 exp_2
  inhibition at 10 µM: 14%
Human thrombin
  Ki: 65 µM
Recombinant SETD2; chemiluminescence-based enzymatic assay
  IC50: 300 µM
Recombinant SETD2; fragment concentration 4.4 [log
  SETD2 signal normalised to positive control and internally to compound: 0.78 and 0.88
Recombinant SETD2; fragment concentration 5 [log
  SETD2 signal normalised to positive control and internally to compound: 0.71 and 0.90
Recombinant SETD2; fragment concentration 5.3 [log
  SETD2 signal normalised to positive control and internally to compound: 0.89 and 0.66
Recombinant SETD2; fragment concentration 5.6 [log
  SETD2 signal normalised to positive control and internally to compound: 0.20 and 0.33
Recombinant SETD2; fragment concentration 5.9 [log
  SETD2 signal normalised to positive control and internally to compound: 0.05 and 0.21
MOLM-13 leukemia cells; concentration 2.18 [log
  normalized viability (0 = 0 % viability, 1 = 100 % viability): 1.039 and 0.9762 and 0.9421
MOLM-13 leukemia cells; concentration 2.66 [log
  normalized viability (0 = 0 % viability, 1 = 100 % viability): 1.004 and 0.9844 and 0.9162
MOLM-13 leukemia cells; concentration 3.14 [log
  normalized viability (0 = 0 % viability, 1 = 100 % viability): 0.9835 and 0.9812 and 0.9002
MOLM-13 leukemia cells; concentration 3.61 [log
  normalized viability (0 = 0 % viability, 1 = 100 % viability): 0.9836 and 0.9626 and 0.8884
MOLM-13 leukemia cells; concentration 4.09 [log
  normalized viability (0 = 0 % viability, 1 = 100 % viability): 0.9563 and 0.9463 and 0.9164
MOLM-13 leukemia cells; concentration 4.57 [log
  normalized viability (0 = 0 % viability, 1 = 100 % viability): 0.8812 and 0.9087 and 0.8366
MOLM-13 leukemia cells; concentration 5.05 [log
  normalized viability (0 = 0 % viability, 1 = 100 % viability): 0.7992 and 0.5481 and 0.7667
MOLM-13 leukemia cells; concentration 5.52 [log
  normalized viability (0 = 0 % viability, 1 = 100 % viability): 0.5003 and 0.4827 and 0.2594
MOLM-13 leukemia cells; concentration 6 [log
  normalized viability (0 = 0 % viability, 1 = 100 % viability): 0.05284 and 0.001062 and 0.1076
MOLM-13 leukemia cells; MOLM-13 cells, 5 days after treatment
  IC50 cell viability / anti-proliferative EC50: 333 µM
MV4-11 leukemia cells; concentration 2.18 [log
  normalized viability (0 = 0 % viability, 1 = 100 % viability): 0.9962 and 1.163 and 0.9666
MV4-11 leukemia cells; concentration 2.66 [log
  normalized viability (0 = 0 % viability, 1 = 100 % viability): 0.9943 and 0.9504 and 0.9572
MV4-11 leukemia cells; concentration 3.14 [log
  normalized viability (0 = 0 % viability, 1 = 100 % viability): 0.9413 and 0.941 and 0.9817
MV4-11 leukemia cells; concentration 3.61 [log
  normalized viability (0 = 0 % viability, 1 = 100 % viability): 0.7873 and 0.9285 and 0.9554
MV4-11 leukemia cells; concentration 4.09 [log
  normalized viability (0 = 0 % viability, 1 = 100 % viability): 0.7566 and 0.9251 and 0.9854
MV4-11 leukemia cells; concentration 4.57 [log
  normalized viability (0 = 0 % viability, 1 = 100 % viability): 0.732 and 0.9248 and 0.8741
MV4-11 leukemia cells; concentration 5.05 [log
  normalized viability (0 = 0 % viability, 1 = 100 % viability): 0.7081 and 0.7223 and 0.7408
MV4-11 leukemia cells; concentration 5.52 [log
  normalized viability (0 = 0 % viability, 1 = 100 % viability): 0.4531 and 0.4099 and 0.4328
MV4-11 leukemia cells; concentration 6 [log
  normalized viability (0 = 0 % viability, 1 = 100 % viability): 0.0008148 and 0.0004041 and 0.01018
MV4-11 leukemia cells; MV4-11 cells, 5 days after treatment
  IC50 cell viability / anti-proliferative EC50: 400 µM

## CC1C(=O)NC(=O)N1c1ccc(Cl)cc1 (stereo not drawn) [SX051]
[1]
  activity in the NSP3 enzyme assay (in words): no activity
SARS-CoV-2; 10 uM, replicates
  Inhibition (%) of viral copy numbers: 0% and 9.716% and 1.026%
  viral copy numbers normalized to the control (untreated infected cells): 2.076 and 0.9028 and 0.9897
SARS-CoV-2; 100 uM, replicates
  Inhibition (%) of viral copy numbers: 32.89% and 37.84%
  viral copy numbers normalized to the control (untreated infected cells): 0.7145 and 0.6711 and 0.6216
SARS-CoV-2; 250 uM, replicates
  Inhibition (%) of viral copy numbers: 83.75% and 96.5% and 61.73%
  viral copy numbers normalized to the control (untreated infected cells): 0.1625 and 0.03502 and 0.3827
SARS-CoV-2; 500 uM, replicates
  Inhibition (%) of viral copy numbers: 86.97% and 88.23%
  viral copy numbers normalized to the control (untreated infected cells): 0.2487 and 0.1303 and 0.1177
SARS-CoV-2; 750 uM, replicates
  Inhibition (%) of viral copy numbers: 96.17% and 94.15%
  viral copy numbers normalized to the control (untreated infected cells): 0.05523 and 0.03827 and 0.05848
SARS-CoV-2; 1000 uM, replicates
  Inhibition (%) of viral copy numbers: 100% and 99.81%
  viral copy numbers normalized to the control (untreated infected cells): 0.003839 and 0 and 0.001919
SARS-CoV-2; Severe acute respiratory syndrome coronavirus 2, Vero C1008, 100 uM, replicates, read-out: Inhibition (%) of viral copy numbers
  inhibition at 100 µM: 28.5%
SARS-CoV-2; Severe acute respiratory syndrome coronavirus 2, Vero C1008, 500 uM, replicates, read-out: Inhibition (%) of viral copy numbers
  inhibition at 500 µM: 75.1%
SARS-CoV-2; Severe acute respiratory syndrome coronavirus 2, Vero C1008, 750 uM, replicates, read-out: Inhibition (%) of viral copy numbers
  inhibition at 750 µM: 94.5%
SARS-CoV-2; Severe acute respiratory syndrome coronavirus 2, Vero C1008, 1000 uM, replicates, read-out: Inhibition (%) of viral copy numbers
  inhibition at 1000 µM: 99.6%
SARS-CoV-2; Severe acute respiratory syndrome coronavirus 2, Vero C1008, 48 h
  EC50: 136 µM
SARS-CoV-2
  EC50: 136 µM
  antiviral activity in the cellular assay (in words): high micromolar range; also recorded: Significant antiviral activities
[2]
  X-ray screen result, binding site: identified in the active site

## Clc1ccc2nnnn2n1 [SX054]
[1]
  activity in the NSP3 enzyme assay (in words): no activity
SARS-CoV-2
  antiviral activity in the cellular assay (in words): inactive in cells
[2]
  X-ray screen result, binding site: identified in the active site
